Results from patent US8889671B2, “Compounds and methods for treating bacterial infections” (AstraZeneca AB, priority 2013, dated 2014).
Converted amounts (≈) assume the structure as drawn. Where two headings read alike, the source gives them in different places.

Assays:
[1] = molecular target: Escherichia coli DNA gyrase A/B tetramer (Escherichia coli (strain K12), UniProt P0AES4+P0AES6); assay: DNA gyrase supercoiling activity fluorescence polarisation assay; type: biochemical; conditions: 0.3 mM ATP
In short: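 Relaxed triplex-forming plasmid (130 micrograms/mL) supercoiled by 5 nM gyrase A/B tetramer in Tris-HCl pH 7.5 buffer with 4 mM MgCl2 and 0.3 mM ATP, ~30 min, ambient temperature. Quenched with 5′-BODIPY-FL triplex probe at pH 3.5; fluorescence anisotropy read after 60 min. IC50 by nonlinear regression against two control reactions.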

Staphylococcus aureus = assay: Susceptibility testing (MIC) Assay 1, broth microdilution; type: cell-based
Streptococcus pyogenes = assay: as above; type: cell-based; conditions: Streptococcus pyrgenes, in vivo strain, read-out: Spy MIC
Streptococcus pneumoniae = assay: as above; type: cell-based
Escherichia coli = assay: Susceptibility testing (MIC) Assay 2, broth microdilution; type: cell-based; conditions: K12, read-out: Eco MIC
Haemophilus influenzae = assay: as above; type: cell-based; conditions: ATCC 51907, in vivo strain, read-out: Hin MIC
Klebsiella pneumoniae = assay: as above; type: cell-based; conditions: clinical isolate, mucoid, read-out: Kpn MIC
Pseudomonas aeruginosa = assay: as above; type: cell-based; conditions: for MIC: PAO1, read-out: Pae MIC
[2] = Eco Gyr FP Mean IC50, E. coli DNA gyrase supercoiling
[3] = Staphylococcus aureus, Staphylococcus aureus in vivo strain, MSQS, read-out: Sau(d) MIC
[4] = Staphylococcus aureus, in vivo strain, MRQR, read-out: Sau(e) MIC
[5] = Staphylococcus aureus, serum, read-out: Sau(f) MIC
[6] = in vivo strain (footnote b), read-out: Spn(b) MIC
[7] = in vivo strain (footnote c), read-out: Spn(c) MIC
[8] = ATCC51907, Haemophilus influenzae

SMILES | IC50 [1, 2] [nM] | MIC (Staphylococcus aureus; [3]) [µM] | MIC (Staphylococcus aureus; [4]) [µM] | MIC (Staphylococcus aureus; [5]) [µM] | MIC (Streptococcus pyogenes; Streptococcus pyogenes) [µM] | MIC (Streptococcus pneumoniae; [6]) [µM] | MIC (Streptococcus pneumoniae; [7]) [µM] | MIC (Escherichia coli) [µM] | MIC (Haemophilus influenzae; [8]) [µM] | MIC (Klebsiella pneumoniae) [µM] | MIC (Pseudomonas aeruginosa) [µM] | IC50 ([1]; E. coli DNA gyrase supercoiling, read-out: Eco Gyr FP Mean IC50) [nM] | MIC (Staphylococcus aureus; Staphylococcus aureus in vivo strain, MSQS, read-out: Sau(d) MIC) [µM] | MIC (Streptococcus pyogenes) [µM] | MIC (Haemophilus influenzae) [µM] | Pae MIC (Pseudomonas aeruginosa; PAO1) [µM]
C[C@@H]1CN2c3c(cc4c(N5C(=O)OC[C@@H]5CCO)noc4c3F)CC3(C(=O)NC(=O)NC3=O)[C@H]2[C@H](C)O1 [Example 31, (2R,4S,4aS)-11-Fluoro-8-((S)-4-(2-hydroxyethyl)-2-oxooxazolidin-3-yl)-2,4-dimethyl-2,4,4a,6-tetrahydro-1H,1′H-spiro[isoxazolo[4,5-g][1,4]oxazino[4,3-a]quinoline-5,5′-pyrimidine]-2′,4′,6′(3′H)-trione] | 420 | 3.1 (≈ 1.6 µg/mL) | 12 (≈ 6.21 µg/mL) | 3.1 (≈ 1.6 µg/mL) | 0.39 (≈ 0.202 µg/mL) | 0.78 (≈ 0.404 µg/mL) | 0.78 (≈ 0.404 µg/mL) | 100 (≈ 51.7 µg/mL) | 0.39 (≈ 0.202 µg/mL) | > 200 | > 200 | – | – | – | – | –
C[C@@H]1CN2c3c(cc4c(N5C[C@@H](CF)OC5=O)noc4c3Cl)CC3(C(=O)NC(=O)NC3=O)[C@H]2[C@H](C)O1 [Example 32, (2R,4S,4aS)-11-Chloro-8-((S)-5-(fluoromethyl)-2-oxooxazolidin-3-yl)-2,4-dimethyl-2,4,4a,6-tetrahydro-1H,1′H-spiro[isoxazolo[4,5-g][1,4]oxazino[4,3-a]quinoline-5,5′-pyrimidine]-2′,4′,6′(3′H)-trione] | 630 | < 0.2 | 0.78 (≈ 0.407 µg/mL) | 0.39 (≈ 0.204 µg/mL) | < 0.2 | 0.39 (≈ 0.204 µg/mL) | 0.39 (≈ 0.204 µg/mL) | 1.5 (≈ 0.783 µg/mL) | 0.27 (≈ 0.141 µg/mL) | 200 (≈ 104 µg/mL) | 200 (≈ 104 µg/mL) | – | – | – | – | –
C[C@@H]1CN2c3c(cc4c(N5C(=O)OC[C@@H]5CCCO)noc4c3Cl)CC3(C(=O)NC(=O)NC3=O)[C@H]2[C@H](C)O1 [Example 33, (2R,4S,4aS)-11-Chloro-8-((S)-4-(3-hydroxpropyl)-2-oxooxazolidin-3-yl)-2,4-dimethyl-2,4,4a,6-tetrahydro-1H,1′H-spiro[isoxazolo[4,5-g][1,4]oxazino[4,3-a]quinoline-5,5′-pyrimidine]-2′,4′,6′(3′H)-trione] | – | – | 12 (≈ 6.58 µg/mL) | 6.2 (≈ 3.4 µg/mL) | – | 0.39 (≈ 0.214 µg/mL) | 0.39 (≈ 0.214 µg/mL) | 100 (≈ 54.8 µg/mL) | – | >200 | – | 260 | 3.1 (≈ 1.7 µg/mL) | 0.39 (≈ 0.214 µg/mL) | 0.78 (≈ 0.427 µg/mL) | >200
C[C@@H]1CN2c3c(cc4c(N5C(=O)OC[C@@H]5CCCF)noc4c3Cl)CC3(C(=O)NC(=O)NC3=O)[C@H]2[C@H](C)O1 [Example 34, (2R,4S,4aS)-11-Chloro-8-((S)-4-(3-fluoropropyl)-2-oxooxazolidin-3-yl)-2,4-dimethyl-2,4,4a,6-tetrahydro-1H,1′H-spiro[isoxazolo[4,5-g][1,4]oxazino[4,3-a]quinoline-5,5′-pyrimidine]-2′,4′,6′(3′H)-trione] | 230 | < 0.2 | 0.78 (≈ 0.429 µg/mL) | 1.6 (≈ 0.88 µg/mL) | 0.39 (≈ 0.214 µg/mL) | 0.39 (≈ 0.214 µg/mL) | 0.39 (≈ 0.214 µg/mL) | 25 (≈ 13.7 µg/mL) | 0.39 (≈ 0.214 µg/mL) | 200 (≈ 110 µg/mL) | > 200 | – | – | – | – | –
COC[C@@H]1CN(c2noc3c(F)c4c(cc23)CC2(C(=O)NC(=O)NC2=O)[C@H]2[C@H](C)O[C@H](C)CN42)C(=O)O1 [Example 35] | 310 | < 0.2 | 1.6 (≈ 0.828 µg/mL) | 0.39 (≈ 0.202 µg/mL) | 0.2 (≈ 0.103 µg/mL) | 0.39 (≈ 0.202 µg/mL) | 0.39 (≈ 0.202 µg/mL) | 50 (≈ 25.9 µg/mL) | 0.78 (≈ 0.404 µg/mL) | > 200 | > 200 | – | – | – | – | –
COC[C@H]1CN(c2noc3c(F)c4c(cc23)CC2(C(=O)NC(=O)NC2=O)[C@H]2[C@H](C)O[C@H](C)CN42)C(=O)O1 [Example 36] | 590 | 0.78 (≈ 0.404 µg/mL) | 3.1 (≈ 1.6 µg/mL) | 1.6 (≈ 0.828 µg/mL) | 0.78 (≈ 0.404 µg/mL) | 1.6 (≈ 0.828 µg/mL) | 1.6 (≈ 0.828 µg/mL) | 100 (≈ 51.7 µg/mL) | 1.6 (≈ 0.828 µg/mL) | > 200 | > 200 | – | – | – | – | –
C[C@@H]1CN2c3c(cc4c(N5C[C@H](CO)OC5=O)noc4c3F)CC3(C(=O)NC(=O)NC3=O)[C@H]2[C@H](C)O1 [Example 37, (2R,4S,4aS)-11-Fluoro-8-[(5R)-5-(hydroxymethyl)-2-oxo-1,3-oxazolidin-3-yl]-2,4-dimethyl-1,2,4,4a-tetrahydro-2′H,6H-spiro[1,4-oxazino[4,3-a][1,2]oxazolo[4,5-g]quinoline-5,5′-pyrimidine]-2′,4′,6′(1′H,3′H)-trione] | 120 | 3.1 (≈ 1.56 µg/mL) | 25 (≈ 12.6 µg/mL) | 6.2 (≈ 3.12 µg/mL) | 0.39 (≈ 0.196 µg/mL) | 0.39 (≈ 0.196 µg/mL) | 0.78 (≈ 0.393 µg/mL) | 200 (≈ 101 µg/mL) | 0.39 (≈ 0.196 µg/mL) | > 200 | > 200 | – | – | – | – | –
C[C@@H]1CN2c3c(cc4c(N5C[C@H](CF)OC5=O)noc4c3F)CC3(C(=O)NC(=O)NC3=O)[C@H]2[C@H](C)O1 [Example 38, (2R,4S,4aS)-11-Fluoro-8-[(5R)-5-(fluoromethyl)-2-oxo-1,3-oxazolidin-3-yl]-2,4-dimethyl-1,2,4,4a-tetrahydro-2′H,6H-spiro[1,4-oxazino[4,3-a][1,2]oxazolo[4,5-g]quinoline-5,5′-pyrimidine]-2′,4′,6′(1′H,3′H)-trione] | 67 | < 0.2 | 1.65 (≈ 0.834 µg/mL) | 0.78 (≈ 0.394 µg/mL) | < 0.2 | 0.39 (≈ 0.197 µg/mL) | 0.39 (≈ 0.197 µg/mL) | 25 (≈ 12.6 µg/mL) | 0.39 (≈ 0.197 µg/mL) | 200 (≈ 101 µg/mL) | > 200 | – | – | – | – | –
C=C[C@H]1COC(=O)N1c1noc2c(F)c3c(cc12)CC1(C(=O)NC(=O)NC1=O)[C@H]1[C@H](C)O[C@H](C)CN31 [Example 39, (2R,4S,4aS)-11-Fluoro-2,4-dimethyl-8-((S)-2-oxo-4-vinyloxazolidin-3-yl)-2,4,4a,6-tetrahydro-1H,1′H-spiro[isoxazolo[4,5-g][1,4]oxazino[4,3-a]quinoline-5,5′-pyrimidine]-2′,4′,6′(3′H)-trione] | 97 | 0.39 (≈ 0.195 µg/mL) | 1.6 (≈ 0.799 µg/mL) | 1.6 (≈ 0.799 µg/mL) | 0.39 (≈ 0.195 µg/mL) | 0.78 (≈ 0.39 µg/mL) | 0.78 (≈ 0.39 µg/mL) | 25 (≈ 12.5 µg/mL) | 0.39 (≈ 0.195 µg/mL) | 200 (≈ 99.9 µg/mL) | > 200 | – | – | – | – | –
C[C@@H]1CN2c3c(cc4c(N5C[C@H](C=NO)OC5=O)noc4c3F)CC3(C(=O)NC(=O)NC3=O)[C@H]2[C@H](C)O1 [Example 40, (2R,4S,4aS)-11-Fluoro-8-{(5R)-5-[(hydroxyimino)methyl]-2-oxo-1,3-oxazolidin-3-yl}-2,4-dimethyl-1,2,4,4a-tetrahydro-2′H,6H-spiro[1,4-oxazino[4,3a][1,2]oxazolo[4,5-g]quinoline-5,5′-pyrimidine]-2′,4′,6′(1′H,3′H)-trione] | 380 | 0.78 (≈ 0.403 µg/mL) | 3.1 (≈ 1.6 µg/mL) | 1.6 (≈ 0.826 µg/mL) | 0.28 (≈ 0.145 µg/mL) | 0.39 (≈ 0.201 µg/mL) | 0.78 (≈ 0.403 µg/mL) | 12 (≈ 6.2 µg/mL) | 0.39 (≈ 0.201 µg/mL) | > 200 | > 200 | – | – | – | – | –
C[C@@H]1CN2c3c(cc4c(N5C(=O)OC[C@@H]5C#N)noc4c3F)CC3(C(=O)NC(=O)NC3=O)[C@H]2[C@H](C)O1 [Example 41, (4S)-3-[(2R,4S,4aS)-11-Fluoro-2,4-dimethyl-2′,4′,6′-trioxo-1,1′,2,3′,4,4′,4a,6′-octahydro-2′H,6H-spiro[1,4-oxazino[4,3-a][1,2]oxazolo[4,5-g]quinoline-5,5′-pyrimidin]-8-yl]-2-oxo-1,3-oxazolidine-4-carbonitrile] | 460 | 0.78 (≈ 0.389 µg/mL) | 1.6 (≈ 0.797 µg/mL) | 1.6 (≈ 0.797 µg/mL) | 0.78 (≈ 0.389 µg/mL) | 0.39 (≈ 0.194 µg/mL) | 0.78 (≈ 0.389 µg/mL) | 25 (≈ 12.5 µg/mL) | 0.78 (≈ 0.389 µg/mL) | > 200 | > 200 | – | – | – | – | –
CON=C[C@H]1COC(=O)N1c1noc2c(F)c3c(cc12)CC1(C(=O)NC(=O)NC1=O)[C@H]1[C@H](C)O[C@H](C)CN31 [Example 42, (2R,4S,4aS)-11-Fluoro-8-{(4S)-4-[(methoxyimino)methyl]-2-oxo-1,3-oxazolidin-3-yl}-2,4-dimethyl-1,2,4,4a-tetrahydro-2′H,6H-spiro[1,4-oxazino[4,3-a][1,2]oxazolo[4,5-g]quinoline-5,5′-pyrimidine]-2′,4′,6′(1′H,3′H)-trione] | 290 | < 0.2 | 0.39 (≈ 0.207 µg/mL) | 1.6 (≈ 0.849 µg/mL) | 0.39 (≈ 0.207 µg/mL) | 0.39 (≈ 0.207 µg/mL) | 0.39 (≈ 0.207 µg/mL) | 25 (≈ 13.3 µg/mL) | 0.39 (≈ 0.207 µg/mL) | 200 (≈ 106 µg/mL) | > 200 | – | – | – | – | –
CON=C[C@H]1CN(c2noc3c(F)c4c(cc23)CC2(C(=O)NC(=O)NC2=O)[C@H]2[C@H](C)O[C@H](C)CN42)C(=O)O1 [Example 43] | 440 | 0.39 (≈ 0.207 µg/mL) | 0.78 (≈ 0.414 µg/mL) | 1.6 (≈ 0.849 µg/mL) | 0.78 (≈ 0.414 µg/mL) | 0.78 (≈ 0.414 µg/mL) | 1.6 (≈ 0.849 µg/mL) | 50 (≈ 26.5 µg/mL) | 1.6 (≈ 0.849 µg/mL) | > 100 | > 100 | – | – | – | – | –
